The source of these data is patent US5185338A, “Medicament for treating cerebral insufficiency diseases, novel 2-(1-piperazinyl)-4-phenylcycloalkanopyrimidine derivatives, and process for the production thereof” (Dainippon Pharmaceutical Co., Ltd., priority 1989, dated 1993).

One series relates to mice. Nature of the series: Acute toxicity. The class given is in vivo, mice (Std-ddY strain). The conditions noted are these: 200 mg/kg orally; 7 days observation; 5 male mice. As for the experimental part:
Experiment 8 Acute toxicity
A group of 5 male mice (Std-ddY strain, 25-30 g) was used. The test compound (200 mg/kg) was orally administered to the test animal in the form of a 0.5% tragacanth solution or suspension, and for 7 days after the administration of the test compound, the lethality of animals was observed.

Series [1] relates to sodium nitrite-induced anemic hypoxia. Put plainly: Protective effect on sodium nitrite-induced anemic hypoxia. The note with it: 10 mg/kg i.p., 2 hours before sodium nitrite 225 mg/kg i.p.; vs sodium nitrite alone. The class given is in vivo, mice (Std-ddY strain). The source says: Protective effect on sodium nitrite-induced anemic hypoxia:
It is known that sodium nitrite (NaNO2) induces anemic hypoxia by converting hemoglobin to metohemoglobin, resulting in a severe impairment of brain function and ultimately in death. Based on the above knowledge, prolongation of survival time after sodium nitrite treatment was used as an index for antihypoxic effect of the test compounds.
A group of 20 male mice (Std-ddY strain, 25-30 g) was intraperitoneally given a test compound (10 mg/kg), and 2 hours after the treatment with the test compound, a lethal amount (225 mg/kg) of sodium nitrite was intraperitoneally administered, and then, the survival time of each mouse was measured. The effect of the test compounds was assessed by the prolongation rate (%) of survival time compared with that of the animals treated with sodium nitrite alone.

Series [2] concerns scopolamine-induced hypermotility. Nature of the series: Antagonistic effect on scopolamine-induced hypermotility. The class given is in vivo, mice (Std-ddY strain). The conditions noted are these: Mus musculus, po, read-out: Inhibitory ratio (% antagonism of scopolamine-induced hypermotility). The procedure: Antagonistic effect on scopolamine-induced hypermotility:
A test compound was orally administered to each mouse, and 90 minutes after the administration, each one test animal was placed within a test cage (25×35×30 cm). After 30 minutes, scopolamine hydrobromide (1 mg/kg) was intraperitoneally administered to the mice and then the motility was measured with Animex activity meter for 30 minutes. The effect of test compounds was expressed as % antagonism (complete antagonism to the motility level of non-dosed animals=100%).

A further series has as its target T1, dopamine (D2) receptor (Rattus norvegicus, UniProt P61169).
T1 construct: Crude synaptosome fractions prepared from some brain regions in rats were used as the receptor sources; from tissue
Nature of the series: Dopamine (D2) receptor binding assay, [3H] spiperone. Set-up: species or system rats. The conditions noted are these: rat brain crude synaptosome fractions. The procedure:
(§1) Effect of binding to dopamine (D2), serotonin (S1, S2) and adrenaline (α1) receptor (in vitro receptor binding assay):
(§2) Dopamine (D2), serotonin (S1, S2) and adrenaline (α1) receptor binding assays were carried out according to the methods of I. Creese et al. [Eur. J. Pharmacol., 46, 377 (1977)], S. J. Peroutka et al. [Mol. Pharmacol., 16, 687 (1979)], J. E. Leysen et al. [Mol. Pharmacol., 21, 301 (1982)], and D. C. U'Prichard et al. [Mol. Pharmacol., 13, 454 (1977)], respectively.
(§3) Crude synaptosome fractions prepared from some brain regions in rats were used as the receptor sources, and [^3 H] spiperone (D2), [^3 H] serotonin (S1), [^3 H] ketanserin (S2) and [^3 H] WB-4101 (α1) were used as the labelled ligands. The binding assay was performed by incubating aliquots of synaptosome fraction in buffer solution (final volume 1 ml) containing the receptor source and the labelled ligand in the presence of a test compound having various concentration thereof for a fixed time. The assay was terminated by rapid filtration through Whatman GF/B glass fiber filters attached to a cell-harvester (Brandel) and radioactivity on the filters was counted with a scintillation counter. Specific binding was calculated as a difference between the amount of radioactivity in the assay group and that in the control group which was separately measured likewise in the presence of an excess amount of an unlabelled ligand [spiperone (D2), serotonin (S1), methysergide (S2) and prazosin (α1)] instead of […]. The IC50 value of the test compounds (i.e. the concentration causing 50% inhibition of the labelled ligand specific binding) was determined by probit analysis.

The test system of series [3] is brain serotonin metabolite, 5-hydroxyindole-3-acetic acid (5-HIAA). Put plainly: Increasing effect on concentration of brain serotonin metabolite (5-HIAA). The class given is in vivo, mice (Std-ddY strain). The note with it: Mus musculus, 2 h, two hours after treatment, 5-HIAA level of non-dosed animals=100%. The source says: Increasing effect on concentration of brain serotonin metabolite:
A group of 5 male mice (Std-ddY strain, 25-30 g) was used for examining effect of the test compounds on concentration of a brain serotonin metabolite, 5-hydroxyindole-3-acetic acid (5-HIAA).
Mice were killed by decapitation two hours after the treatment with the test compounds. Brains were quickly taken out, homogenized in 1N formic acid-acetone solution, and centrifuged in a refrigerated ultracentrifuge. The supernatant was evaporated by blowing with N2 gas, and then, the residue was again dissolved in 0.01N acetic acid, and served for determining 5-HIAA concentration by high performance liquid chromatography with electrochemical detection. The effect of the test compounds on 5-HIAA concentration was shown as % of control (5-HIAA level of non-dosed animals=100%).

Series [4] relates to scopolamine-induced deficit of spontaneous alternation behavior. Nature of the series: Improving effect on scopolamine-induced deficit of spontaneous alternation behavior (T-maze). Type of series: in vivo, mice (Std-ddY strain). The conditions noted are these: scopolamine hydrobromide 1 mg/kg, non-dosed mice=100%. An excerpt:
Improving effect on scopolamine-induced deficit of spontaneous alternation behavior:
A group of 15-25 male mice (Std-ddY strain, 22-28 g) was used for evaluating effect of the test compounds on scopolamine-induced deficit of spontaneous alternation in a T-maze, which is a known animal model of memory impairment due to hypofunction of the cholinergic nervous system. The T-maze used consists of a stem and two arms which are 25 cm long, 5 cm wide and 10 cm high. The first 10 cm of the stem and last 10 cm of each arm are divided by sliding doors into start and goal boxes.
A test compound and scopolamine hydrobromide (1 mg/kg) were intraperitoneally administered to each mouse, and after 30 minutes a test of spontaneous alternation task in the T-maze was continuously repeated for 8 trials. Commonly, naive mice alternate each (right and left) goal box in turn, but scopolamine-treated animals tend to enter the same goal box repeatedly. The effect of the test compounds was expressed as % improvement (complete improvement to the alternation level of non-dosed mice=100%).

Series [5] deals with cycloheximide-induced amnesia of passive avoidance response. Put plainly: Improving effect on cycloheximide-induced amnesia of passive avoidance response. The class given is in vivo, mice (Std-ddY strain). The note with it: cycloheximide 60 mg/kg s.c., retention trial at 24 hours, non-dosed animals=100%. An excerpt:
Improving effect on cycloheximide-induced amnesia of passive avoidance response:
Anti-amnesic effect of the test compounds was examined using mice given cycloheximide which is a known amnesia-inducing agent.
A group of 15-20 male mice (Std-ddY strain, 27-33 g) was subjected to training and retention trials for a passive avoidance task in a step-down apparatus (30×30×50 cm) with a grid floor and a wooden platform (4×4×4 cm) in a center of the floor. In the training trial, each mouse was first placed on the platform, and when the mouse stepped down on the grid floor, an electric shock (1 Hz, 0.5 sec, 60 VDC) was delivered to the feet for 15 seconds. Immediately after the training trial, cycloheximide (60 mg/kg, s.c.) and a test compound (i.p.) were administered. The retention trial was carried out 24 hours thereafter, and the time from placing again each mouse on the platform until stepping down on the grid floor (step-down latency) was measured. The step-down latency in the retention trial was markedly shortened by treatment of cycloheximide (amnesia). The effect of test compounds was assessed by % improvement (complete improvement to the latency level of non-dosed animals=100%).

The target of the next series is T2, serotonin (S2) receptor (Rattus norvegicus, UniProt P14842).
T2 construct: Crude synaptosome fractions prepared from some brain regions in rats were used as the receptor sources; from tissue
Nature of the series: Serotonin (S2) receptor binding assay, [3H] ketanserin. Also on record: species or system rats. The note with it: rat brain crude synaptosome fractions. The procedure: as §1, §2, §3

A further series concerns the target adrenaline (α1) receptor. Put plainly: Adrenaline (α1) receptor binding assay, [3H] WB-4101. Set-up: species or system rats. The note with it: rat brain crude synaptosome fractions. As for the experimental part:
as §1, §2, §3

For another series, the target named is serotonin (S1) receptor. Nature of the series: Serotonin (S1) receptor binding assay, [3H] serotonin. The note with it: rat brain crude synaptosome fractions. Also on record: species or system rats. As for the experimental part: as §1, §2, §3

T2 sequence (P14842 whole entry): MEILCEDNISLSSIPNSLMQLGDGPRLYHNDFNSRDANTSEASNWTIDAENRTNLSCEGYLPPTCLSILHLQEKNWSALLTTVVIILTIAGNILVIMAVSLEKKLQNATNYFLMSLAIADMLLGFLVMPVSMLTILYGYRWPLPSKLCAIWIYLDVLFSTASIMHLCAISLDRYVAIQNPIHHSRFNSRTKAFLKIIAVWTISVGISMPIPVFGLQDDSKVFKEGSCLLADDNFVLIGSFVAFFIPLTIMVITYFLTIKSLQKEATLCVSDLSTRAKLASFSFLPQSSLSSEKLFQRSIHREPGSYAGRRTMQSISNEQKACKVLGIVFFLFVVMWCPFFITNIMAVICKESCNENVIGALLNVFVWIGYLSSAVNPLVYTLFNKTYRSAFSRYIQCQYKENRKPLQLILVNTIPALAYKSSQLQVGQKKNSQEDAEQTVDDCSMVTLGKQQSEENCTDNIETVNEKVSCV
T1 sequence (P61169 whole entry): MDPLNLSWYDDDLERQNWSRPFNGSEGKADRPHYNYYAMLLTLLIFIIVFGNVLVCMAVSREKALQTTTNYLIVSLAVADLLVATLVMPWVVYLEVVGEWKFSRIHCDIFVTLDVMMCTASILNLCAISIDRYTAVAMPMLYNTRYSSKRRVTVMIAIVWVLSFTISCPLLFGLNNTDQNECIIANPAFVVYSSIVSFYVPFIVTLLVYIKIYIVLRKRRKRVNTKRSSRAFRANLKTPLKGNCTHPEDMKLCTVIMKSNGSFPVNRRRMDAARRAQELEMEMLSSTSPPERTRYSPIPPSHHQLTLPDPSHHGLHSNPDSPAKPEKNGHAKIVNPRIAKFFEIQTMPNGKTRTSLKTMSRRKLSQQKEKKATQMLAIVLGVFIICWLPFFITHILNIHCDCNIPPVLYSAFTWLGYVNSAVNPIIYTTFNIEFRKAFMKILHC

In the case of `Fc1ccc(-c2nc(N3CCNCC3)nc3c2CCC3)cc1` [Ex. 1, 2-(1-piperazinyl)-4-(4-fluorophenyl)-6,7-dihydro-5H-cyclopentapyrimidine], the Lethality of animals result in the series on mice is “no animal was died”. Also, the “Prolongation rate of survival time” value in series [1] turned out to be 36.7%. Moreover, the inhibition in vivo at 3 mg/kg in series [2] was found to be 60.7%. In addition, the IC50 came to 920 nM at dopamine (D2) receptor, 29 nM at serotonin (S2) receptor, 1100 nM on adrenaline (α1) receptor and 750 nM on serotonin (S1) receptor. Further, in series [3], the response vs control in vivo at 100 mg/kg is 150%. Further, the “Improvement of scopolamine-induced deficit of spontaneous alternation” value is recorded as 47.8% in series [4] (0.02 mg/kg i.p.) and 51.9% in series [4] (0.5 mg/kg i.p.). For the same molecule, the “Improvement of cycloheximide-induced amnesia (step-down latency)” value was 33.8% in [5] (0.5 mg/kg i.p.) and 65.8% in series [5] (2.0 mg/kg i.p.).

As usually defined, the IC50 is the concentration that inhibits the measured activity by half. A low value points to greater potency in that assay.
